Measured values from patent US4242354A, “2-(2-Thenolythio)-propionylglycine: method for its preparation and pharmaceutical formulations containing said compound” (Mediolanum Farmaceutici S.r.L., priority 1978, dated 1980).
Like-named read-outs stand apart in the source and are kept apart here.

Legend:
elderly patients = type: in vivo, man
Procedure: The drug was assessed, with respect to its mucolytic action, on thirty elderly patients ([…], maximal 87, mean age 72). […] The improvement was assessed on the basis of the following parameters:
decrease of the daily quantity of sputum;
decrease of the viscosity of the sputum;
increase of the Tiffeneau's index;
improved value of the erythrocyte sedimentation rate.
A group of twenty patients, in the same mean age, was given for control purposes a known drug such as N-acetylcysteine.

[1] = tested on: carbon tetrachloride poisoning; test: Protective activity in the carbon tetrachloride poisoning; type: in vivo, male rats (Sprague-Dawley); settings: CCl4 0.5 ml/mg sc, 7 days; drugs intramuscularly, (I) 200 and 300 mg/kg, (II) 300 mg/kg
Procedure: Fifty male rats (Sprague-Dawley, 180-200 grams bodyweight) were used for the investigation, subdivided into 5 groups: one group was given no treatment while the remaining 4 groups were poisoned for 7 consecutive days with CCl4 at the dosage of […] given subcutaneously.

mouse [2] = settings: oral, 10 animals per dose
[3] = Stability test: melting point before and after heating; type: physicochemical
Procedure: (§1) The stability tests were carried out according to the Rogers' nonisothermic method suitably integrated by the evaluation of physical data, melting point, weight variation, and spectrophotometric assay. For each single compound, the tests were performed on a series of samples, with the weight of 100 milligrams, added for the wet tests with 1 ml of distilled water. […] The sample were kept in a thermostat at increasing temperatures, i.e. from 25° to 80° C. […] The temperature, programmed according to the Rogers' formula, resulted to be 40° C. at the end of the first hour, 50° C. at the end of the second hour, 57° C. at the end of the third hour, 63° C. at the end of the fourth hour, 69° C. at the end of the fifth hour, 73° C. at the end of the sixth hour, 77° C. at the end of the seventh hour and, as already specified, 80° C. at the end of the eighth hour.
The melting point was established in a capillary tube, under identical conditions, on the samples No. 5 after heating for 8 hours in the previously specified conditions, and on the samples No. 10 after heating and evaporation to dryness as previously specified.

bromobenzene poisoning = test: Protective activity in the bromobenzene poisoning; type: in vivo, male rats (Sprague-Dawley); settings: 300 mg/kg oral, vs investigational compound
Procedure: Fifty male rats (Sprague-Dawley, 180-200 g bodyweight) were used for the investigation, subdivided into 5 groups, each consisting of 10 animals, given orally the following compounds
(1) 5 percent gum arabic in tap water
(2) 5 percent gum arabic in tap water
(3) 2-(2-thenoylthio)-propionylglycine--200 mg/kg
(4) 2-(2-thenoylthio)-propionylglycine--300 mg/kg
Seven days later, the animals of the groups 2-3-4-[…] were given bromobenzene subcutaneously (150 mg/rat) while the remaining group (control) was given an equivalent volume of saline. Still seven days later, 5 of the animals of each group were given Nembutal (25 mg/kg/intraperitoneally), and the sleeping time was calculated.
The remaining 5 animals of each group were given bromophthalein at the dose of 50 mg intravenously; thirty minutes later, the animals were sacrificed and both the present bromophthalein and SGPT (serum glutamic pyruvic transaminase) were established in the blood.

[4] = Solubility and organoleptic properties; type: physicochemical; settings: 100 milligrams with 1 ml of distilled water
mercuric chloride = test: In vivo protective action against mercurial compounds; parameters: species or system male mice (Swiss strain); settings: 300 mg/kg ip, mercuric chloride 20 mg/kg ip, mice, 24 hours
Procedure: Forty male mice (Swiss strain, 22 grams mean bodyweight) were used for the investigation, subdivided into 4 groups treated as follows:
(1) mercuric chloride, 20 mg/kg/intraperitoneally;
(4) mercuric chloride 20 mg/kg/intraperitoneally+2-thiopropionylglycine 300 mg/kg/intraperitoneally.
Deaths occurred were recorded hourly in the first 5 hours, and thereafter after 24 hours.

in vivo [5] = settings: mouse, po
[6] = Rogers' nonisothermic method: energies of activation, specific velocities, validity periods; type: physicochemical
Procedure: as §1
The data shown in Table 7 were worked out according to the Rogers' method, drawing up the values of the energies of activation of the decomposition reactions under dry and wet conditions, the specific rate constants as well as the validity period.

[7] = Stability test: physical properties and weight variations on heating; type: physicochemical
Procedure: as §1
Still in Table 5, the sample from 1 to 5 refer, for each of the two compounds, to the dry substance while the samples from 6 to 10 refer to the solution or to the aqueous suspension obtained as above specified.
(§2) In the case of the wet-treated samples, the final weight was only established on the samples No. 10 brought to dryness at 60° C. under vacuum after an 8-hour heating.

[8] = background; cited from earlier work
in vivo [9] = settings: mouse, iv
in vivo [10] = settings: rat, in vivo
Procedure: (§3) Hundred-and-forty (140) albino rats, Sprague-Dawley strain, bodyweight 120-135 grams, subdivided into groups each consisting of 5 animals, were used for the investigation. […] For each single compound the LD 50 was assessed according to Litchfield and Wilcoxon on the basis of the mortality rate encountered in the 7 days following the treatment.

rat = test: in vivo; settings: 10 animals per dose
Procedure: as §3

mouse [11] = settings: intravenous, 10 animals per dose
physchem = test: physchem
Procedure: as §1, §2

[12] = sample 1, dry, 1 hour 30 minutes
[13] = sample 3, dry, 5 hours 15 minutes
[14] = sample 5, dry, 8 hours, listed as 2-thiopropionylglycine
[15] = sample 10, wet, 8 hours, brought to dryness

## CC(=O)N[C@@H](CS)C(=O)O [N-acetylcysteine, reference compound]
Elderly patients; in vivo
  fit of cough on aerosol administration: frequently happens
Elderly patients; twenty control patients on N-acetylcysteine
  decrease of the sputum, comparison of (I) and N-acetylcysteine: overall comparable with those provided by the compound (I)

## CC(S)C(=O)NCC(=O)O (centres unmarked) [compound (II), 2-mercaptopropionylglycine, reference compound]
[1]
  liver weight increase consequent to CCl4: can prevent the liver weight increase
Mouse [2]; 1500 mg/kg
  No. Animals Dead: 0
Mouse [2]; 2000 mg/kg
  No. Animals Dead: 1
Mouse [2]; 2500 mg/kg (highest dose)
  No. Animals Dead: 2
[3]; after heating
  melting point variation: marked decrease of the melting point in the case of the wet sample
[3]; after heating 8 hours wet and evaporation to dryness
  Final m.p. wet conditions (Sample 10): 86-88 °C
[3]; after heating for 8 hours, dry
  Final m.p. dry conditions (Sample 5): 92-94 °C
[3]; before heating
  Initial m.p.: 93-95 °C
Bromobenzene poisoning
  liver protective effect: lower than that induced by the investigational compound, and statistically not significant
[4]
  appearance in water: clear solution
Mercuric chloride
  deaths: 10%
In vivo [5]; 1500 mg/kg
  mortality: 0%
In vivo [5]; 2000 mg/kg
  mortality: 10%
In vivo [5]; 2500 mg/kg
  mortality: 20%
[6]; dry
  Energy of activation of the decomposition reaction: 15.66 kcal/mol
[6]; wet
  Energy of activation of the decomposition reaction: 11.54 kcal/mol
[7]; [12]
  Color: white
  Weight Fin.: 98.3 mg
  Weight Variations: -5.4%
[7]; sample 2, dry, 3 hours
  Color: white
[7]; sample 2, dry, 3 hours, listed as 2-thiopropionylglycine
  Weight Fin.: 93.0 mg
[7]; [13]
  Color: white
  Weight Fin.: 94.8 mg
  Weight Variations: -5.67%
[7]; sample 4, dry, 8 hours
  Color: white
  Weight Fin.: 95.7 mg
  Weight Variations: -5.53%
[7]; [14]
  Weight Fin.: 198.9 mg
  Weight Variations: -2.83%
[7]; sample 6, wet
  Color: colorless
[7]; sample 7, wet
  Color: colorless
[7]; sample 8, wet
  Color: colorless
[7]; sample 9, wet
  Color: yellowish
[7]; [15]
  Weight Fin.: 193.8 mg
  Weight Variations: -3.1%
[8]
  stability (known): low stability
In vivo [9]; 500 mg/kg
  mortality: 0%
In vivo [9]; 750 mg/kg
  mortality: 0%
In vivo [9]; 1000 mg/kg
  mortality: 10%
In vivo [10]; im
  LD50 at 168 h: 1630 mg/kg
In vivo [10]; im, 1500 mg/kg
  mortality at 168 h: 20%
In vivo [10]; im, 1750 mg/kg
  mortality at 168 h: 60%
In vivo [10]; im, 2000 mg/kg
  mortality at 168 h: 100%
In vivo [10]; po, 1500 mg/kg
  mortality at 168 h: 0%
In vivo [10]; po, 2000 mg/kg
  mortality at 168 h: 0%
In vivo [10]; po, 2500 mg/kg
  mortality at 168 h: 20%
rat; intramuscular, 1500 mg/kg
  No. Animals Dead: 2
rat; intramuscular, 1750 mg/kg
  No. Animals Dead: 6
rat; intramuscular, 2000 mg/kg
  No. Animals Dead: 10
rat; oral, 1500 mg/kg
  No. Animals Dead: 0
rat; oral, 2000 mg/kg
  No. Animals Dead: 0
rat; oral, 2500 mg/kg (highest dose)
  No. Animals Dead: 2
Mouse [11]; 500 mg/kg
  No. Animals Dead: 0
Mouse [11]; 750 mg/kg
  No. Animals Dead: 0
Mouse [11]; 1000 mg/kg
  No. Animals Dead: 1
physchem
  Content: 101.43%
physchem; as such
  E at 232 nm: 0.329
physchem; dry
  remaining at 1.5 h: 101%
  remaining at 3 h: 101%
  remaining at 5.25 h: 99.5%
  remaining at 8 h: 98.4%
physchem; sample 1, dry
  E at 232 nm: 0.325
physchem; sample 2, dry
  E at 232 nm: 0.324
physchem; sample 3, dry
  E at 232 nm: 0.325
physchem; sample 4, dry
  E at 232 nm: 0.324
physchem; sample 6, wet
  E at 232 nm: 0.333
physchem; sample 7, wet
  E at 232 nm: 0.325
physchem; sample 8, wet
  E at 232 nm: 0.320
physchem; sample 9, wet
  E at 232 nm: 0.300
